In data set [1] the test system is HaCaT human keratinocytes. The data set can be described thus: Reactive Oxygen Species evaluation with dihydrorhodamine 123. The data set is classed as cell-based. The settings on record: greatest applied concentration, 24 h. Here is the method:
(§1) The oxidant-sensitive dye, dihydrorhodamine 123 (DHR), was used to detect intracellular ROS level. Cells were plated in the flat bottom 96-well plates to sub confluent (60-70 %) then the medium was removed and replaced with the pre-warmed treatment solutions (medium containing different concentration of the excipients). After 24 hours incubation with treatment solutions, medium was removed and replaced with the 100 μl of pre-warmed dying buffer (Hank's balanced salt solution (HBSS) containing 12 µM DHR dye). Cells were incubated for 30 minutes at 37 °C in a humidified 5 % CO2 atmosphere in dark. The cellular fluorescence generated by the DHR oxidation was measured at 485 nm (OD 485) using a microplate reader (Multiskan™ FC Microplate Photometer). Hydrogen peroxide (H2O2) treatment (800, 400, 200, and 100 µM)/ (27, 13.5, 6.75, 3.4 µg/ml) was used as positive control and dying buffer with no cells as blank control. Data points were recorded every 10 minutes for 60 minutes and exported for analysis by Excel software. The ROS level is calculated as the difference between (Ftest/ Fcontrol) and expressed as percentages of the control value using this formulation: […]
(§2) where Ftest and Fcontrol are the fluorescence intensities of the cells exposed to the treatments and the cells with only medium, respectively. Fluorescence intensity of the blank wells were measured at every measurement time points and recorded to compare with the control wells.

For data set [2], the system named is D24 human melanoma cells. The description is as above. It counts as cell-based. As to conditions: greatest applied concentration, 24 h. Here is the method: as §1, §2
Data set [3] relates to WM1366 human melanoma cells. The data set is described as above. The data set is classed as cell-based. As to conditions: greatest applied concentration, 24 h. Here is the method: as §1, §2
The test system of data set [4] is WM164 human melanoma cells. The description is as above. It counts as cell-based. The settings on record: greatest applied concentration, 24 h. Here is the method:
as §1, §2

The test system of data set [5] is primary skin fibroblasts (FB). The data set is described as above. It counts as cell-based, human. The settings on record: greatest applied concentration, 24 h. Here is the method: as §1, with “Hydrogen peroxide (H2O2) treatment (800, 400, 200, and 100 µM)/ (27, 13.5, 6.75, 3.4 µg/ml) was used as positive control and dying buffer with no cells as blank control.” left out
as §2

For data set [6], the system named is HaCaT human keratinocytes. The data set can be described thus: Trypan blue (TB) exclusion assay, membrane integrity. The data set is classed as cell-based. The settings on record: 24 h exposure, read-out: IC50 (μg/ml) HaCaT, TB. Here is the method:
(§3) The dye exclusion test is routinely applied in laboratories to assess the number of live cells present in a cell suspension. […] In this assay a cell suspension is mixed with dye and then visualized to distinguish the cells that take up dye from the ones that exclude it. Viable cells will be seen as a clear cytoplasm whereas a dead cell will appear with a blue cytoplasm (Strober, 2001[86]). After cell incubation for 24 h, the excipient-containing medium was removed, and cells were trypsinized using trypsin-EDTA to obtain cell suspension. 20 µl of trypan blue dye was mixed thoroughly with 20 µl cell suspension by pipetting ups and downs and loaded into the cell counting slide. Cell numbers were detected by the automated cell counting machine. To find the total number of viable cells in one ml of aliquot, the number of viable cells was multiplied by 2 (the dilution factor for trypan blue). Viable cell percentage was calculated as follows: […]

Data set [7] relates to D24 human melanoma cells. The description is as above. It counts as cell-based. As to conditions: 24 h exposure, read-out: IC50 (μg/ml) D24, TB. Here is the method: as §3
The subject of data set [8] is WM1366 human melanoma cells. Described as above. It counts as cell-based. As to conditions: 24 h exposure, read-out: IC50 (μg/ml) WM1366, TB. Here is the method:
as §3

Data set [9] has as its system WM164 human melanoma cells. The data set is described as above. It counts as cell-based. The settings on record: 24 h exposure, read-out: IC50 (μg/ml) WM164, TB. Here is the method:
as §3

In data set [10] the test system is primary skin fibroblasts (FB). Described as above. It counts as cell-based. As to conditions: Homo sapiens, Skin fibroblast, 24 h exposure, read-out: IC50 (μg/ml) FB, TB. Here is the method: as §3
The conditions of data set [11]: Table 1, physicochemical information of the excipients, source not given; cited from earlier work.
Data set [12] has as its system primary skin fibroblasts (FB). The data set can be described thus: Crystal violet (CV) cell viability assay. The data set is classed as cell-based, human. As to conditions: Homo sapiens, Skin fibroblast, 24 h exposure, read-out: IC50 (μg/ml) [Mean, Range] FB, CV. Here is the method:
Cells were seeded into the 96-well cell culture plates in 100 μl of complete culture medium at the initial density of 2x10^4 (cells/ml). Cells were incubated under 5 % CO2 at 37 °C for 24 hours for adhering to the wells and medium was then replaced with 100 μl of fresh medium containing excipient solution at the required final concentration. Each concentration was tested in minimum of 5 replicates and control cells were exposed to the culture medium only. Fixed cells were stained with crystal violet dye solution to screen cell viability under treatment conditions. Cells are fixed by 4 % (v/v) paraformaldehyde in PBS for 10 minutes. Crystal violet assay of 0.05 % (v/v) is prepared by 1:4 dilution of the crystal violet stock solution (v/v) in 4 % (v/v) paraformaldehyde. The fixed cells were washed twice with PBS and covered with 250 µl crystal violet working solution. The plates were placed on a bench rocker with medium frequency (20 oscillations per minute) at room temperature for 20 minutes. The plates were emptied and washed under indirect stream of tap water for three times and inverted on filter paper. The plates were taped gently on the paper to remove any remaining liquid and air dried with no lid for minimum of 2 hr at room temperature. After the plates were photographed, blue dye was dissolved in DMSO and the optical density of each well was measured at 570 nm (OD570) with a plate reader (Multiskan™ FC Microplate Photometer). The effect of each treatment was calculated as the percentage of crystal viable staining of surviving attached cells, against the negative control (cells treated with culture medium only). To assess the excipients' cytotoxicity, the dose-response effect of each excipient was measured against the cell lines. The cytotoxicity value for each concentration of the excipients was expressed as percentage of viability against the untreated control wells (the optical density of untreated cells was set at 100 % viability) to construct dose-response curves. […] All IC50 values were expressed as µg/ml. The percentage viability was calculated as follows: […]

≈ marks a conversion by molar mass, not a printed value.

Take `CCOCCOCCO` [Transcutol®, diethylene glycol monoethyl ether]: the “ROS production increase vs untreated control” value in data set [1] is listed as 29.4%; in the data set on D24 human melanoma cells [2] it was 24.9%; in data set [3] it was 18.1%; in [4], 22.5%; in [5], 4.3%. In addition, the IC50 in data set [6] is 6.57 µg/mL (≈ 49 µM); in the data set on D24 human melanoma cells [7] it was 21.6 µg/mL (≈ 161 µM); in data set [8], 13.7 µg/mL (≈ 102 µM); in data set [9] it was 14.6 µg/mL (≈ 108 µM); in data set [10], 7.08 µg/mL (≈ 52.8 µM); in data set [12] it was 5.97 µg/mL (≈ 44.5 µM). Besides, the HLB in [11] is recorded as 4.

The values above are taken from PMC10776879, “In vitro screening of topical formulation excipients for epithelial toxicity in cancerous and non-cancerous cell lines” (EXCLI Journal, 2023).
